Experimental data: patent publication US7589078B2, “Anti-viral nucleoside analogs and methods for treating viral infections, especially HIV infections” (Yale University, priority 2003, dated 2009)
Read-outs that look alike come from different tables or passages of the source.

Legend:
[1] = target: T1, thymidine phosphorylase (TP) (Homo sapiens, UniProt P19971); test: Thymidine phosphorylase assay; type: in vitro ADME; settings: partially purified TP from human liver, 100 μM nucleoside, 37° C., FIG. 11
T1 construct: using a partially purified prepartion of human liver extract (28) as a source of the thymidine phosphorylase (TP); from tissue; host or cells: human liver extract, partially purified
T1 sequence (P19971 11-482): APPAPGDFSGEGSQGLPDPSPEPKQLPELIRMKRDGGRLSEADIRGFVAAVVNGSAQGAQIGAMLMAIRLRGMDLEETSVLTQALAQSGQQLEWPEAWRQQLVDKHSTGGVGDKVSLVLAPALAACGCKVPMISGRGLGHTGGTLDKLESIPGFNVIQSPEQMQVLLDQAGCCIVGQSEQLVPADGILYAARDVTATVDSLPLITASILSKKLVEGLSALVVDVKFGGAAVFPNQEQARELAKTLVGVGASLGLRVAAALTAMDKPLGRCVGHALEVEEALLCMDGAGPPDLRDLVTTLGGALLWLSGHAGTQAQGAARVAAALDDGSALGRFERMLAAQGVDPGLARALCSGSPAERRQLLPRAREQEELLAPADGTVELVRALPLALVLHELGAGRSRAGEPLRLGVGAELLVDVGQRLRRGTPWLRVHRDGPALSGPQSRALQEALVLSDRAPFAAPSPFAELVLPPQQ
Protocol: Thymidine Phosphorylase Assays: Nucleoside analogs (100 μM) were incubated in 75 mM potassium phosphate buffer pH 7.3 at 37° C. using a partially purified prepartion of human liver extract (28) as a source of the thymidine phosphorylase (TP). After incubation, the reaction was stopped by the addition of trichloroacetic acid to a final concentration of 15%. The samples were then incubated on ice. After the acid insoluble components were removed by centrifugation, the supernatant was neutralized by two extractions with one half volume of trioctylamine/freon (45:55). The aqueous supernatants were examined by HPLC using the Beckman ODS column method, as described in Acid Stability Studies.

HIV-1 strain IIIB [2] = settings: MT-2 cells; EC50 reported previously (17); read-out: EC50: effective concentration required to achieve 50% protection from HIV in MT-2 cells; cited from earlier work
CEM cells = test: Cellular toxicity in CEM cells (cell counts); settings: for IC50: read-out: Cellular ID50
Protocol: The basic procedures are similar. The cells are seeded a low concentration, then serial dilutions of test compound are added. […] After 48 to 96 h incubation at 37° C. in a 5% CO2 humidified incubator the assay is ended. The drug treated samples are compared to the untreated controls. This is accomplished in suspension cell lines by counting cell numbers either with a hemocytometer or by using a Coulter Counter.
The numbers in parentheses represent the mean and standard deviations of percentage of untreated CEM control cells at the concentration indicated.

MT-2 cells = test: Cellular toxicity, MT-2 cell growth; type: cell-based; settings: MT-2 cells; read-out: ID50: concentration required to inhibit MT-2 cell growth by 50%
From the text: (§1) The basic procedures are similar.

thymidine kinase (TK-1) [3] = target: T2, thymidine kinase (TK-1) (Homo sapiens, UniProt P04183); test: Thymidine kinase assay with added nucleoside ([14C]-dThd to dTMP); settings: [14C]-dThd 25 μM, added nucleoside 250 μM; compared to reactions with no additions
T2 sequence (P04183 1-234): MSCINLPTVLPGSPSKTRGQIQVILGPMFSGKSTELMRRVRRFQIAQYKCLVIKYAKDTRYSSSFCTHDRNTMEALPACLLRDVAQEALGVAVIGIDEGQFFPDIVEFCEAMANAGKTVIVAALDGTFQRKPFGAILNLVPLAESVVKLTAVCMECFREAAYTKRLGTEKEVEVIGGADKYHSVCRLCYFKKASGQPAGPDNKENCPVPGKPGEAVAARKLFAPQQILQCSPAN
Protocol: After two additional washes in ethanol, the discs were dried and placed in scintillation vials that contained 5 ml SafeScint Scintillation Cocktail (American Bioanalytical, Natick, Mass.). The amount of radioactivity, which represents the amount of dTMP formed, was quantitated in a Beckman LS5000TD Scintillation Counter (Beckman Instruments Inc., Palo Alto, Calif.).

thymidine kinase (TK-1) [4] = target: T2, thymidine kinase (TK-1); test: Monophosphorylation of analogs by thymidine kinase; type: biochemical; set-up: phosphorylated by thymidine kinase (TK-1) from CEM cells; endogenous in cells; settings: for Relative Vmax: 250 μM dThd or analog, 2.4 mM ATP, 0.07 unit TK-1, 37° C., 285 min, dThd = 100
Protocol: Monophosphorylation of Analogs by Thymidine Kinase: All the analogs were tested for their ability to be phosphorylated by thymidine kinase (TK-1) from CEM cells. This enzyme was purified by an affinity column technique developed in this laboratory (7). […] At the end of the incubation time the reaction was stopped by the addition of 3 parts cold HPLC grade methanol. After incubating on ice for at least 10 min. the methanol insoluble material is precipitated by centrifugation and the methanol soluble supernatants were placed into clean microfuge tubes. These samples were brought to dryness in a Speedvac Centrifuge. The samples were dissolved in water and separated on a Shimatzu HPLC model SCL 10Avp using a gradient of water to 300 mM potassium phosphate and a Whatman 10/25 particle SAX column. Km and relative Vmax studies were done in a similar fashion, using the same mixture and different amounts of substrate and enzyme.

HIV-1 strain IIIB [5] = test: Antiviral activity in MT-2 cells infected with HIV-1 strain IIIB (MTT); type: cell-based
Protocol: Determination of antiviral activity: Compounds were tested in MT-2 cells infected with HIV-1 strain IIIB essentially as described previously (31). […]. Calculations of the percent protection and isobologram combination studies are described (12).

H-9 cells = test: Toxicity in H-9 cells alone and in combination (Coulter Counter); type: cell-based; settings: H-9 cells, 48 h
From the text: as §1

[6] = test system: mtDNA content of CEM cells; test: Mitochondrial DNA content in CEM cells (Southern blot); type: cell-based; settings: for IC50: four days, read-out: Mitochondrial DNA Content ID50
Protocol: Mitochondrial DNA: The effect of nucleoside analogs on mtDNA content was assessed as described previously (2). […] Cells treated with drugs at various concentrations either as single agents or in combination were grown for four days. Cells were then harvested, treated with proteinase K and DNase free RNase. Extracts were applied to nylon membranes and hybridized with an mtDNA probe. After stripping the membrane the load was normalized by rehybridizing the membrane with an Alu probe. Blots were quantitated with a Molecular Dynamics personal densitometer SI with ImageQuaNT analysis software.

[7] = CEM cells, four day cell growth, cell counts vs untreated controls
[8] = Human immunodeficiency virus 1, MT2, MT-2/HIV IIIB system, FIG. 10, read-out: EC50 for single agents (isobologram study)
[9] = MT-2 cells, HIV-1 IIIB, read-out: EC50: effective concentration required to achieve 50% protection from HIV in MT-2 cells

Row | SMILES | Cell count, percentage of untreated CEM control cells (CEM cells; CEM cells, at 100 μM) | IC50 (CEM cells; [7]) | IC50 (MT-2 cells) | Percent of Activity (thymidine kinase (TK-1) [3]) | Relative Vmax (thymidine kinase (TK-1) [4]) | EC50 (HIV-1 strain IIIB [5]; [9]) | other results
1 | Cc1cn([C@H]2C[C@H](O)[C@@H](CO)O2)c(=O)[nH]c1=O [dThd] | – | – | – | – | – | – | Break down by thymidine phosphorylase [1]: broke down very quickly
2 | C=C[C@@]1(CO)C=C[C@H](n2cc(C)c(=O)[nH]c2=O)O1 [4′-vinyl D4T] | 78 ± 21% | > 100 µM | > 100 µM | 99.5 ± 6.9% | 1.8 ± 0.5 | – | EC50 (HIV-1 strain IIIB [2]): > 100 µM; Rate of conversion to the monophosphate form (thymidine kinase (TK-1) [4]; purified human TK-1): approximately 2% of dThd
3 | Cc1cn([C@H]2C=C[C@@](C)(CO)O2)c(=O)[nH]c1=O [4′-methyl D4T] | 114 ± 2% | > 100 µM | > 100 µM | 103.8 ± 9.9% | 1.6 ± 0.5 | – | EC50 (HIV-1 strain IIIB [2]): > 100 µM; Rate of conversion to the monophosphate form (thymidine kinase (TK-1) [4]; purified human TK-1): approximately 2% of dThd
4 | Nc1nc(=O)n([C@@H]2C=C[C@H](CO)O2)cc1F [LFd4C, β-L-2′,3′-dideoxy-2′,3′-didehydro-5-fluorocytidine, reference compound] | – | – | – | – | – | – | EC50 (HIV-1 strain IIIB [5]; [8]): 0.18 µM; Percent of Untreated Controls (H-9 cells; 5 μM LFd4C alone): 73 ± 9%; Percent of Untreated Controls (H-9 cells; 10 μM LFd4C alone): 56 ± 4%
5 | Nc1ccn([C@@H]2CS[C@H](CO)O2)c(=O)n1 [3TC, β-L-2′,3′-dideoxy-3′-thiacytidine, reference compound] | – | – | – | – | – | – | EC50 (HIV-1 strain IIIB [5]; [8]): 1 µM; Cell count, percentage of untreated CEM control cells (CEM cells; CEM cells, at 200 μM): 77 ± 28%; IC50 (CEM cells; Homo sapiens, CCRF-CEM, 96 h): > 200 µM; IC50 ([6]; Homo sapiens, CCRF-CEM, 96 h): > 200 µM; Mitochondrial DNA content, percentage of untreated CEM control cells ([6]; at 200 μM): 114 ± 2%; Percent of Untreated Controls (H-9 cells; 5 μM 3TC alone): 99 ± 3%; Percent of Untreated Controls (H-9 cells; 20 μM 3TC alone): 94 ± 3%; Percent of Untreated Controls (H-9 cells; 100 μM 3TC alone): 108 ± 12%
6 | Cc1cn([C@H]2C=C[C@@](C#N)(CO)O2)c(=O)[nH]c1=O [4′-cyano D4T] | 60 ± 1% | > 100 µM | > 100 µM | 71.8 ± 8.2% | 1.1 ± 0.2 | 7 ± 2.6 µM | Anti-HIV activity compared with D4T (HIV-1 strain IIIB [5]; MT-2/IIIB anti HIV-1 system, FIG. 8): less active than D4T; Mitochondrial DNA content, percentage of untreated CEM control cells ([6]; at 100 μM): 264 ± 23%; IC50 [6]: > 100 µM
7 | Nc1ccn([C@H]2CC[C@@H](CO)O2)c(=O)n1 [ddC, 2′,3′-dideoxycytidine, reference compound] | – | – | – | – | – | – | IC50 (CEM cells; Homo sapiens, CCRF-CEM, 96 h): 5.5 ± 1.8 µM; IC50 ([6]; Homo sapiens, CCRF-CEM, 96 h): 0.15 ± 0.12 µM
8 | Cc1cn([C@H]2C=C[C@@](C#CCl)(CO)O2)c(=O)[nH]c1=O [4′-ethynylchloro D4T] | – | 62.6 ± 10 µM | 63.3 ± 20.8 µM | 53.2 ± 9.2% | 3.9 ± 1.0 | > 100 µM | –
9 | Cc1cn([C@H]2C[C@H](N=[N+]=[N-])[C@@H](CO)O2)c(=O)[nH]c1=O [AZT, 3′-Azido-3′-deoxythymidine, reference compound] | – | – | – | 5.4 ± 2.3% | 55.5 ± 9.7 | – | Rate of phosphorylation by TK-1, in words (thymidine kinase (TK-1) [4]; purified human TK-1): half as fast as dThd
10 | C=CC[C@@]1(CO)C=C[C@H](n2cc(C)c(=O)[nH]c2=O)O1 [4′-allyl D4T] | – | > 100 µM | > 100 µM | 110.8 ± 9.0% | 0.4 ± 0.2 | > 100 µM | –
